Like-named read-outs stand apart in the source and are kept apart here.
What was measured:
limb bud cell culture = limb bud cell culture assay (evaluation of teratogenic potential); assay type: cell-based
Description: Teratogene Effekte gehören zu den schwerschwiegensten Nebenwirkungen aller Retinoide.

Sebumdrüsen = assay: Minipig model (in vivo), histology of skin biopsies
Description: Die Wirksamkeit der erfindungsgemässen Verbindungen bei der Behandlung der Akne kann mit den nachstehend beschriebenen Versuchsanordnungen gezeigt werden: • 1. Hemmung der Proliferation menschlicher Sebocyten (in vitro) Literatur: Methods in Enzymology 190, 334 (1990), T. Doran and S. Shapiro • 2. Aenderung der Differenzierung von Schweinesebocyten (invitro), Induktion von Keratin 7. Kulturen von Schweinesebocyten werden aus isolierten Sebumdrüsen erwachsener Minischweine hergestellt. Sie reagieren auf die Behandlung mit Retinoiden mit der Expression von Keratin 7, was auch der in vivo Situation entspricht. Keratin 7 wird als ein Marker für eine modifizierte Differenzierung der Sebocyten angesehen. Der entstehende Phenotyp kann kein Sebum mehr produzieren. Die Messung der Keratin 7-Induktion basiert auf einem ELISA assay unter Verwendung eines Maus-monoklonalen Antikeratin 7-Antikörpers. • 3. Minipig-Modell (in vivo) Die Haut der Minischweine hat eine ähnliche anatomische Struktur wie menschliche Haut. Im besonderen ähneln die Sebumdrüsen denen menschlicher Aknepatienten. Unter Retinoid-Behandlung zeigen sie die gleichen histologischen Veränderungen wie beim Menschen. Die Schweine erhalten täglich eine orale Dosis der Versuchssubstanz während 8 Wochen. Alle 2 Wochen wird eine Biopsie genommen und histologisch untersucht.

[1] = limb bud cell culture assay, IC50 correlates with in vivo teratogenicity, read-out: IC50

Structure (SMILES) | IC50 (limb bud cell culture; [1]) [nM] | IC50 (limb bud cell culture) [nM] | other results
CC1=C(/C=C/C(C)=C/C=C/C(C)=C\C(=O)O)C(C)(C)C(=O)C=C1 [Beispiel 4, (2Z,4E,6E,8E)-9-(5-Oxo-2,6,6-trimethyl-cyclohexa-1,3-dienyl)-3,7-dimethyl-nona-2,4,6,8-tetraensäure] | > 1000 |  | 
CC1=C(C#C/C(C)=C/C=C/C(C)=C\C(=O)O)C(C)(C)C[C@H](O)C1 [Beispiel 3, (2Z,4E,6E)-(R)-9-(4-Hydroxy-2,6,6-trimethyl-cyclohex-1-enyl)-3,7-dimethyl-nona-2,4,6-trien-8-yn-säure] | > 1000 |  | 
CC1=C(/C=C/C(C)=C/C=C/C(C)=C\C(=O)O)C(C)(C)CCC1 [Isotretinoin, reference compound] |  | 200 | 
CC1=C(/C=C/C(C)=C/C=C/C(C)=C\C(=O)O)C(C)(C)C[C@H](O)C1 [Beispiel 1, (2Z,4E,6E,8E)-(R)-9-(4-Hydroxy-2,6,6-trimethyl-cyclohex-1-enyl)-3,7-dimethyl-nona-2,4,6,8-tetraensäure] | > 1000 |  | Verkleinerung der Sebumdrüsen (Sebumdrüsen; daily oral dose 10 mg/kg, after 3-4 weeks): deutliche Verkleinerung der Sebumdrüsen; Sebumdrüsen nach 8 Wochen (Sebumdrüsen; daily oral dose 10 mg/kg, after 8 weeks): weitgehend verschwunden; Nebenwirkungen auf Haut und Schleimhäute (Sebumdrüsen; oral dose 50 mg/kg, in contrast to Isotretinoin): keinerlei Nebenwirkungen auf Haut und Schleimhäute
CC1=C(/C=C/C(C)=C/C=C/C(C)=C/C(=O)O)C(C)(C)CCC1 [Tretinoin, reference compound] |  | 80 | 
